# Measurements published in patent publication US9144557B2, “Hematopoietic growth factor mimetic small molecule compounds and their uses” (Ligand Pharmaceuticals Inc., priority 2009, dated 2015).
# System: UT7/EPO Cell line
# Assay: Cell Proliferation Assay (UT7/EPO, ViaLight Plus)
# Assay type: cell-based, human
# Details: proliferative effect; compounds at 10 uM; UT7/EPO cells starved of EPO overnight; 72 hours at 37° C.; ViaLight Plus kit
# Method: The primary testing for the examplfied compounds was performed in UT7/EPO Cell line. UT7/EPO is human leukemia cell line, obtained from Dr. Norio Komatsu (Blood, Vol 82 (2), pp 456-464, 1993). These cells express endogenous EPO receptor and are dependant upon EPO for growth and proliferation. Briefly, the cells were starved of EPO overnight and plated in 96 or 384 well plates. The compounds were added to the cells at 10 uM concentration. The plates were then incubated at 37° C. for 72 hours. The proliferative effect of the compounds was measured by a commercially available kit from Lonza (ViaLight Plus).
row,Compound,Activity (%)
1,"O=C(Nc1ccc(C(=O)c2ccc(NC(=O)c3c[nH]nn3)cc2)cc1)c1ccc(N2CCOCC2)cc1 [Compound 610, 4-Morpholino-N-(4-(4-(1,2,3-triazole-4-carboxamido)benzoyl)phenyl)benzamide]",14%
2,"CN1CCN(c2ccc3nc(-c4ccc5[nH]c(-c6ccccc6)nc5c4)[nH]c3c2)CC1 [Compound 1710, 5-(6-(4-Methylpiperazino)-1H-benzimidazol-2-yl)-2-phenyl-1H-benzimidazole]",11%
3,"O=C(Nc1ccc2[nH]c(-c3cccc(-c4nc5cc(NC(=O)c6ccc(N7CCCC7)cc6)ccc5[nH]4)c3)nc2c1)c1ccc(N2CCCC2)cc1 [Compound 268, N,N′-(2,2′-(1,3-phenylene)bis(1H-benzo[d]imidazole-5,2-diyl))bis(4-(pyrrolidin-1-yl)benzamide)]",15%
4,"O=C(Nc1ccc2[nH]c(-c3ccc(C(=O)NC4CC4)cc3)nc2c1)c1ccc(N2CCC(O)C2)cc1 (stereo not drawn) [Compound 240, N-cyclopropyl-4-(5-(4-(3-hydroxypyrrolidin-1-yl)benzamido)-1H-benzo[d]imidazol-2-yl)benzamide]",15%
5,"O=C(Nc1ccc2c(cnn2-c2ccc(NC(=O)c3cccs3)cc2)c1)c1ccc(N2CCCC(CO)C2)cc1 (racemic) [Compound 520, (±)-N-(4-(5-(4-(3-Hydroxymethyl)piperidin-1-yl)benzamido)-1H-indazol-1-yl)phenyl)thiophene-2-carboxamide]",13%
6,"NNC(=O)c1ccc(-c2nc3cc(NC(=O)c4ccc(N5CCCC5)cc4)ccc3[nH]2)cc1 [Compound 230, N-(2-(4-(hydrazinecarbonyl)phenyl)-1H-benzo[d]imidazol-5-yl)-4-(pyrrolidin-1-yl)benzamide]",21%
7,"Cc1noc(COc2ccc3nc(-c4ccc(C(=O)Nc5ccc6cc[nH]c6c5)cc4)[nH]c3c2)n1 [Compound 660, 4-(6-((3-Methyl-1,2,4-oxadiazol-5-yl)methoxy)-1H-benzo[d]imidazol-2-yl)-N-(1H-indol-6-yl)benzamide]",14%
8,"O=C(Nc1ccc2[nH]c(-c3ccc(N4CCC5(CC4)OCCO5)cc3)nc2c1)c1ccc(N2CCOCC2)cc1 [Compound 413, N-(2-(4-(1,4-Dioxa-8-azaspiro[4,5]decan-8-yl)phenyl)-1H-benzimidazol-5-yl)-4-morpholinobenzamide]",19%
9,"O=C(Nc1ccc(N2CCC(O)CC2)cc1)c1ccc2c(cnn2-c2ccc(NC(=O)C3CC3)cc2)c1 [Compound 945, 1-(4-(Cyclopropanecarboxamido)phenyl)-N-(4-(4-hydroxypiperidin-1-yl)phenyl)-1H-indazole-5-carboxamide]",10%
10,"Cn1ccc(C(=O)Nc2ccc(-n3cc(C4CC4)c4cc(NC(=O)c5ccc(N6CCC(O)CC6)cc5)ccc43)cc2)c1 [Compound 1070, N-(4-(3-cyclopropyl-5-(4-(4-hydroxypiperidin-1-yl)benzamido)-1H-indol-1-yl)phenyl)-1-methyl-1H-pyrrole-3-carboxamide]",15%
11,"O=C(Nc1ccc2c(cnn2-c2ccc(NC(=O)c3ccc4cc[nH]c4c3)cc2)c1)c1ccc(N2CCC(O)CC2)cc1 [Compound 510, N-(4-(5-(4-(4-Hydroxypiperidin-1-yl)benzamido)-1H-indazol-1-yl)phenyl)-1H-indole-6-carboxamide]",17%
12,"CON=C(c1ccc(NC(=O)c2ccc(N3CCN(C(=O)C4CC4)CC3)cc2)cc1)c1ccc(NC(=O)c2ccc(N3CCN(C(=O)C4CC4)CC3)cc2)cc1 [Compound 338, N,N′-(((methoxyimino)methylene)bis(4,1-phenylene))bis(4-(4-(cyclopropanecarbonyl)piperazin-1-yl)benzamide)]",19%
13,"O=C(Nc1ccc2[nH]c(-c3ccc(N4CCOCC4)s3)nc2c1)c1ccc(N2CCOCC2)cc1 [Compound 418, N-(2-(2-Morpholinothien-5-yl)-1H-benzimidazol-5-yl)-4-morpholinobenzamide]",11%
14,"O=C(Nc1ccc(C(=O)c2ccc(NC(=O)c3ccno3)cc2)cc1)c1ccc(N2CCOCC2)cc1 [Compound 600, 4-Morpholino-N-(4-(4-(isoxazole-5-carboxamido)benzoyl)phenyl)benzamide]",11%
15,"O=C(Nc1ccc(C(=O)c2ccc(NC(=O)c3ccsc3)cc2)cc1)c1ccc(N2CCOCC2)cc1 [Compound 490, N-(4-(4-(3-Thienylcarboxamido)benzoyl)phenyl)-4-morpholinobenzamide]",15%
16,"CON=C(c1ccc(NC(=O)c2ccc(N3CCC(O)C3)cc2)cc1)c1ccc(NC(=O)c2ccc(N3CCC(O)C3)cc2)cc1 (stereo not drawn) [Compound 315, N,N′-(((methoxyimino)methylene)bis(4,1-phenylene))bis(4-(3-hydroxypyrrolidin-1-yl)benzamide)]",16%
17,"O=C(Nc1ccc(Nc2ccc(NC(=O)c3cccc(O)c3)cc2)cc1)c1cccc(O)c1 [Compound 570, N,N′-(4,4′-Azanediylbis(4,1-phenylene))bis(3-hydroxybenzamide)]",11%

row,Compound,Activity (%)
1,"CN(C)c1ccc(C(=O)Nc2ccc3[nH]c(-c4ccc(-c5ccc(N(C)C)cc5)cc4)nc3c2)cc1 [Compound 220, 4-(dimethylamino)-N-(2-(4′-(dimethylamino)-[1,1′-biphenyl]-4-yl)-1H-benzo[d]imidazol-5-yl)benzamide]",19%
2,"COc1ccc(-c2nc3cc(NC(=O)c4ccc(NC(=O)c5ccc(N(C)C)cc5)cc4)ccc3[nH]2)cc1 [Compound 444, 4-(dimethylamino)-N-(4-((2-(4-methoxyphenyl)-1H-benzo[d]imidazol-5-yl)carbamoyl)phenyl)benzamide]",19%
3,"O=C(Nc1ccc2c(ccn2-c2ccc(C(=O)NC3CC3)cc2)c1)c1ccc2c(ccn2CCN2CCOCC2)c1 [Compound 960, N-(1-(4-(Cyclopropylcarbamoyl)phenyl)-1H-indol-5-yl)-1-(2-morpholinoethyl)-1H-indole-5-carboxamide]",17%
4,"CN(C)c1ccc(C(=O)Nc2ccc3[nH]c(-c4ccc5c(c4)OCCN5C)nc3c2)cc1 [Compound 181, 4-(Dimethylamino)-N-(2-(4-methyl-3,4-dihydro-2H-benzo[b][1,4]oxazin-7-yl)-1H-benzo[d]imidazol-5-yl)benzamide]",20%
5,"COc1cccc(Nc2nc3cc(NC(=O)c4ccc5[nH]c(-c6ccc(N(C)C)cc6)nc5c4)ccc3[nH]2)c1 [Compound 439, N-(2-(3-Methoxyphenyl)amino-1H-benzimidazol-5-yl)-2-(4-dimethylaminophenyl)-1H-benzimidazole-5-carbamide]",18%
6,"CN(C)c1cccc(/C=N/NC(=O)c2ccc(C(=O)NCCC(=O)NCCO)cc2)c1 [Compound 149, (E)-4-(2-(3-(dimethylamino)benzylidene)hydrazinecarbonyl)-N-(3-((2-hydroxyethyl)amino)-3-oxopropyl)benzamide]",22%
7,"Cn1ccc2cc(C(=O)Nc3ccc4c(cnn4-c4ccc(NC(=O)C5CC5)cc4)c3)ccc21 [Compound 930, N-(1-(4-(Cyclopropanecarboxamido)phenyl)-1H-indazol-5-yl)-1-methyl-1H-indole-5-carboxamide]",12%
8,"C=CCOc1cc(/C=N/NC(=O)c2ccc(N(C)C)cc2)cc(/C=N/NC(=O)c2ccc(N(C)C)cc2)c1 [Compound 113, (N′,N′″E,N′,N′″E)-N′,N′″-((5-(allyloxy)-1,3-phenylene)bis(methanylylidene))bis(4-(dimethylamino)benzohydrazide)]",17%
9,"CN(C)c1ccc(C(=O)Nc2ccc3[nH]c(-c4ccc(-c5nn[nH]n5)cc4)nc3c2)cc1 [Compound 202, N-(2-(4-(2H-tetrazol-5-yl)phenyl)-1H-benzo[d]imidazol-5-yl)-4-(dimethylamino)benzamide]",17%
10,"N#Cc1ccc(-c2nc3ccc(C(=O)Nc4ccc5[nH]c(-c6ccc(OCCO)cc6)nc5c4)cc3[nH]2)cc1 [Compound 294, 2-(4-cyanophenyl)-N-(2-(4-(2-hydroxyethoxy)phenyl)-1H-benzo[d]imidazol-5-yl)-1H-benzo[d]imidazole-6-carboxamide]",11%
11,"O=C(Nc1ccc(C(=O)c2ccc(NC(=O)c3ccc4[nH]ccc4c3)cc2)cc1)c1ccc2[nH]ccc2c1 [Compound 345, N,N′-(4,4′-Carbonylbis(4,1-phenylene))bis(1H-indole-5-carboxamide)]",19%
12,"CON=C(c1ccc(NC(=O)c2ccc(N(C)CCO)cc2)cc1)c1ccc(NC(=O)c2ccc(N(C)CCO)cc2)cc1 [Compound 332, N,N′-(((methoxyimino)methylene)bis(4,1-phenylene))bis(4-((2-hydroxyethyl)(methyl)amino)benzamide)]",18%
13,"Cc1ccc(C(=O)Nc2ccc(Nc3ccc(NC(=O)c4ccc(N5CCC(O)CC5)cc4)cc3)c(F)c2)n1C [Compound 760, N-(3-Fluoro-4-((4-(4-(4-hydroxypiperidin-1-yl)benzamido)phenyl)amino)phenyl)-1,5-dimethyl-1H-pyrrole-2-carboxamide]",21%
14,"CN(C)c1cccc(/C=N/NC(=O)c2ccc(NCCCC(=O)NCCO)cc2)c1 [Compound 151, (E)-4-((4-(2-(3-(dimethylamino)benzylidene)hydrazinecarbonyl)phenyl)amino)-N-(2-hydroxyethyl)butanamide]",20%
15,"CN(C)c1ccc(C(=O)Nc2ccc(-n3ncc4cc(NC(=O)C5CC5)ccc43)cc2)cc1 [Compound 384, N-(4-(5-(cyclopropanecarboxamido)-1H-indazol-1-yl)phenyl)-4-(dimethylamino)benzamide]",11%
16,"O=C(NC1CC1)c1ccc(-n2cnc3cc(NC(=O)c4cc5ccccc5[nH]4)ccc32)cc1 [Compound 1060, N-(1-(4-(Cyclopropylcarbamoyl)phenyl)-1H-benzo[d]imidazol-5-yl)-1H-indole-2-carboxamide]",18%
